Literature values, collected in US4083974A, “Topical steroidal anti-inflammatory preparations containing polyoxypropylene 15 stearyl ether” (The Upjohn Company, priority 1977, dated 1978).

Key:
bacterial = conditions: prior art; composition contains approximately 15% ethyl alcohol
[1] = known property of the prior-art solvent
[2] = known property from the art

Structure (SMILES) | anti-bacterial activity (bacterial) | irritation to the skin [1] | lubricant properties [2]
CCO [ethyl alcohol] | known anti-bacterial agent | – | –
CC(O)CO (stereo not drawn) [Propylene glycol, propylene glycol] | – | irritating to the skin | non-lubricant
